pIC50: −log10 of the molar value. Converted amounts (≈) assume the structure as drawn.
What was measured:
[1] = tested on: BEL7404; experiment: In vitro MTT (proliferation) assay; assay type: cell-based; conditions: Homo sapiens, BEL-7404, BEL7404 cell line, ovary (so in the source)
Experimental: (§1) The inhibitions of Compound A-Xln, Compound A-P-Xln and two chiral isomers (Compound R-A, Compound S-A) to cancer cell lines are tested via in vitro MTT assay. Cancer cell lines are selected from PANC-1, NCI-H157, MDA-MB-231, Hela, PC-3, BEL7404, MKN45, Ishikawa, Saos-2, SKOV3, SW579 and HCT116 cell lines. The IC50 values are in the micromole scale.
(§2) In vitro MTT (proliferation) assay was performed with compound from above examples to give following inhibition results: […]

[2] = tested on: HCT-116; experiment: In vitro MTT (proliferation) assay; assay type: cell-based; conditions: Homo sapiens, HCT116 cell line, colon, MTT, read-out: HCT116 IC50
Experimental: as §1, §2

[3] = tested on: Hela; experiment: In vitro MTT (proliferation) assay; assay type: cell-based; conditions: Homo sapiens; Hela cell line, ovary (so in the source); MTT; read-out: Hela IC50
Experimental: as §1, §2

[4] = tested on: Ishikawa; experiment: In vitro MTT (proliferation) assay; assay type: cell-based; conditions: Homo sapiens, Ishikawa cell line, endometrial
Experimental: as §1, §2

[5] = tested on: MDA-MB-231; experiment: In vitro MTT (proliferation) assay; assay type: cell-based; conditions: Homo sapiens; MDA-MB-231 cell line, breast; MTT; read-out: MDA-MB-231 IC50
Experimental: as §1, §2

[6] = tested on: MKN45; experiment: In vitro MTT (proliferation) assay; assay type: cell-based; conditions: Homo sapiens, MKN-45, MKN45 cell line, breast (so in the source)
Experimental: as §1, §2

[7] = tested on: NCI-H157; experiment: In vitro MTT (proliferation) assay; assay type: cell-based; conditions: Homo sapiens, NCI-H157 cell line, lung
Experimental: as §1, §2

[8] = tested on: PANC-1; experiment: In vitro MTT (proliferation) assay; assay type: cell-based; conditions: Homo sapiens, PANC-1 cell line, pancreas
Experimental: as §1, §2

[9] = tested on: PC-3; experiment: In vitro MTT (proliferation) assay; assay type: cell-based; conditions: Homo sapiens, PC-3 cell line, prostate
Experimental: as §1, §2

[10] = tested on: SKOV3; experiment: In vitro MTT (proliferation) assay; assay type: cell-based; conditions: Homo sapiens, SK-OV-3; SKOV3 cell line, ovary; MTT; read-out: SKOV3 IC50
Experimental: as §1, §2

[11] = tested on: SW579; experiment: In vitro MTT (proliferation) assay; assay type: cell-based; conditions: SW579 cell line, thyroid
Experimental: as §1, §2

[12] = tested on: Saos-2; experiment: In vitro MTT (proliferation) assay; assay type: cell-based; conditions: Homo sapiens, Saos-2 cell line, sarcoma
Experimental: as §1, §2

[13] = Water solubility; assay type: physicochemical
[14] = Stability of amorphous and crystalline form API at 60° C. (HPLC related substances); assay type: physicochemical
Experimental: The samples of amorphous and crystalline form API of Compound A were placed in clean containers and the environmental temperature was controlled at 60° C. The purity of amorphous (Compound A-Amp) and crystalline form (Compound A-Xln) of Compound A were tested at Day 0, Day 10 and Day 30. Samples of amorphous and crystalline form APIs were measured, and the appropriate amount of diluent was added to dissolve with sonication. The concentration was controlled at 0.2 mg/ml and the purification was determined by HPLC with UV detector at 230 nm. Results were listed in the table as follows and the fitted curve is in Drawing Sections as FIG. 6.

[15] = high temperature 60° C., 10 days
[16] = high temperature 60° C., 30 days

pIC50 [1]	pIC50 [2]	pIC50 [3]	pIC50 [5]	pIC50 [6]	pIC50 [7]	pIC50 [8]	pIC50 [9]	pIC50 [10]	pIC50 [11]	SMILES	pIC50 [4]	pIC50 [12]	solubility [13] [µg/mL]	Maximum impurities (%) ([14]; 0 day)	Total impurities (%) ([14]; 0 day)	Maximum impurities (%) [14, 15] [%]	Total impurities (%) [14, 15] [%]	Maximum impurities (%) [14, 16] [%]	Total impurities (%) [14, 16] [%]
5.62	6.01	5.20	5.18	6.49	5.15	5.30	5.25	5.12	6.08	COc1cc2c(Oc3ccc4[nH]c(C)cc4c3F)ccnc2cc1OCCN1C[C@@H](O)C2(CC2)C1 [Compound S-A]	5.30	5.27							
5.39	6.05	5.17	5.02	6.37	5.09	5.25	5.56	5.43	6.04	COc1cc2c(Oc3ccc4[nH]c(C)cc4c3F)ccnc2cc1OCCN1C[C@H](O)C2(CC2)C1 [Compound R-A]	5.34	5.51							
										COc1cc2c(Oc3ccc4[nH]c(C)cc4c3F)ccnc2cc1OCCN1CC(O)C2(CC2)C1 (stereo not shown) [Compound A-P, 5-(2-(4-(4-fluoro-2-methyl-1H-indol-5-yloxy)-6-methoxyquinolin-7-yloxy)ethyl)-5-azaspiro[2.4]-heptan-7-ol]			360 (≈ 754 µM)						
										COc1cc2c(Oc3ccc4[nH]c(C)cc4c3F)ccnc2cc1OCCN1CC(O)C2(CC2)C1 (stereo not shown) [Compound A-Amp, 5-(2-(4-(4-fluoro-2-methyl-1H-indol-5-yloxy)-6-methoxyquinolin-7-yloxy)ethyl)-5-azaspiro[2.4]-heptan-7-ol]				0.075	0.26	0.191	0.323	0.327	0.583

SMILES	pIC50 [1]	pIC50 [2]	pIC50 [3]	pIC50 [5]	pIC50 [6]	pIC50 [7]	pIC50 [8]	pIC50 [9]	pIC50 [10]	pIC50 [11]	pIC50 [4]	pIC50 [12]	solubility [13] [µg/mL]	Maximum impurities (%) ([14]; 0 day)	Total impurities (%) ([14]; 0 day)	Maximum impurities (%) [14, 15] [%]	Total impurities (%) [14, 15] [%]	Maximum impurities (%) [14, 16] [%]	Total impurities (%) [14, 16] [%]
COc1cc2c(Oc3ccc4[nH]c(C)cc4c3F)ccnc2cc1OCCN1CC(O)C2(CC2)C1 (stereo not shown) [Compound A-P-Xln, 5-(2-(4-(4-fluoro-2-methyl-1H-indol-5-yloxy)-6-methoxyquinolin-7-yloxy)ethyl)-5-azaspiro[2.4]-heptan-7-ol]	5.76	6.03	5.63	5.41	6.89	5.79	5.56	5.75	5.51	6.06	5.83	5.61							

Source: patent US20230399313A1, “BIOLOGICAL ACTIVITIES OF 5-(2-(4-(4-FLUORO-2-METHYL-1H-INDOL-5-YLOXY)-6-METHOXYQUINOLIN-7-YLOXY)ETHYL)-5-AZASPIRO[2.4]-HEPTAN-7-OL CRYSTALLINE, PHOSPHORIC ACID SALT AND ITS ENANTIOMERS” (Advenchen Pharmaceuticals, LLC, priority 2022, published 2023)
